Source: ChEMBL document CHEMBL5528070, “Design and Synthesis of Dual-Target Inhibitors Targeting Androgen Receptors and Glucocorticoid Receptors to Overcome Antiandrogen Resistance in Castration-Resistant Prostate Cancer” (J Med Chem, 2024)
Blank lines part the entries; values can stand above or below the compound they belong to.

Legend:
Androgen receptor [1] = molecular target: T1, Androgen receptor (Homo sapiens, UniProt P10275); assay: Antagonist activity at androgen receptor in human LNCaP cells incubated for 24 hrs by luminescence based firefly luciferase assay
T1 sequence (P10275 whole entry): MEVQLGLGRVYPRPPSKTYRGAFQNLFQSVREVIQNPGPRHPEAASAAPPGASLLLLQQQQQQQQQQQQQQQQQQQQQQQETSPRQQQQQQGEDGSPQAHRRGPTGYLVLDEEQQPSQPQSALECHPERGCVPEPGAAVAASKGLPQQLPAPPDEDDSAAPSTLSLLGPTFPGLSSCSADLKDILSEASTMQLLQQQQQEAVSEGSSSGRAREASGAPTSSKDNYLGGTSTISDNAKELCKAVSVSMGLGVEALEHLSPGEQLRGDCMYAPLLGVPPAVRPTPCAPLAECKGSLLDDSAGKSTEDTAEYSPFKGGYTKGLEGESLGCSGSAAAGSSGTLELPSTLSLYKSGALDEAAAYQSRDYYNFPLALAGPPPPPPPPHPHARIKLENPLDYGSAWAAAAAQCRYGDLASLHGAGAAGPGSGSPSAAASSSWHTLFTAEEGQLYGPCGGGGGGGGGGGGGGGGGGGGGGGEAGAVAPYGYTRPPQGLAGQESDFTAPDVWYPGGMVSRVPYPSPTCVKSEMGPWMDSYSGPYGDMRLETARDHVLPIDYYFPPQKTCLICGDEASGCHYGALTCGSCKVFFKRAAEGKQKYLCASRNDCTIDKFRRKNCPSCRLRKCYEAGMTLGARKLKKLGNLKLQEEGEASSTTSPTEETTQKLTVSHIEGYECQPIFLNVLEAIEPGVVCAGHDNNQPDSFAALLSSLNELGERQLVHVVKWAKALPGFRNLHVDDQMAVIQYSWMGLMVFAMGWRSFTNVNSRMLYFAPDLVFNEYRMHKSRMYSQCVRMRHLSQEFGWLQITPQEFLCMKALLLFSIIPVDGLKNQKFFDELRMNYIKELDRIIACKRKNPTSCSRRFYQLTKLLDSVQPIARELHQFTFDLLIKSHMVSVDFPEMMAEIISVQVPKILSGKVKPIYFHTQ

LNCaP = assay: Antiproliferative activity against human LNCaP cells assessed as reduction in cell viability measured after 72 hrs by CCK-8 method
LNCaP C4-2 = assay: Antiproliferative activity against human C4-2 cells assessed as reduction in cell viability measured after 72 hrs by CCK-8 method; conditions: LNCaP C4-2, 72 h
DU-145 = assay: Antiproliferative activity against human DU-145 cells assessed as reduction in cell viability measured after 72 hrs by CCK-8 method; conditions: DU-145, 72 h
PC-3 = assay: Antiproliferative activity against human PC-3 cells assessed as reduction in cell viability measured after 72 hrs by CCK-8 method; conditions: PC-3, 72 h
[2] = Antiproliferative activity against African green monkey COS-7 cells assessed as reduction in cell viability measured after 72 hrs by CCK-8 method; conditions: chlorocebus aethiops
CWR22R = assay: Antiproliferative activity against human 22Rv1 cells assessed as reduction in cell viability measured after 72 hrs by CCK-8 method; conditions: 22Rv1, 72 h
Androgen receptor [3] = molecular target: T1, Androgen receptor
Glucocorticoid receptor [4] = molecular target: T2, Glucocorticoid receptor (Homo sapiens, UniProt P04150)
T2 sequence (P04150 whole entry): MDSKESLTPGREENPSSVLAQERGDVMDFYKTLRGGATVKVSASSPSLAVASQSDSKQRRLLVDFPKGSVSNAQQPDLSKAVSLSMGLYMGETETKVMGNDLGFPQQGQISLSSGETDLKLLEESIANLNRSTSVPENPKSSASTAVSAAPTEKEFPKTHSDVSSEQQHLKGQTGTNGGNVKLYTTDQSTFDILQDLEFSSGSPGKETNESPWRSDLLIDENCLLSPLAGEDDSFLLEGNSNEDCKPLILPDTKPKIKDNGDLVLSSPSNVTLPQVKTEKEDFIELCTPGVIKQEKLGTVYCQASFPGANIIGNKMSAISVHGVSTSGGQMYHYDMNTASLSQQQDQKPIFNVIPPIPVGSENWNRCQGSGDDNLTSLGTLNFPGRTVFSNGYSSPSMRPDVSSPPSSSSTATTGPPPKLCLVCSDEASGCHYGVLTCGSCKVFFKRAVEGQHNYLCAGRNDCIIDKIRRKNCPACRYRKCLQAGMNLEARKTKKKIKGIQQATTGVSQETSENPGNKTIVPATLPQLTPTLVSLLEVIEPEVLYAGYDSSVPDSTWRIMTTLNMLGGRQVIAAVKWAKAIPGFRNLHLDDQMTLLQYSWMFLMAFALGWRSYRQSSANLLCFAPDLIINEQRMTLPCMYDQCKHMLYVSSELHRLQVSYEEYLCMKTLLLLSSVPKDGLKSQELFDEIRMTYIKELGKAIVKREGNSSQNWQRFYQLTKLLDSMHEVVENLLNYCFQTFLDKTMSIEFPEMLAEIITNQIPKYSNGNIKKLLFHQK
Description: (§1) Inhibition of glucocorticoid receptor transcription in human PC-3 cells cotransfected with MMTV-luc and renilla plasmid at incubated for 24 hrs by Dual luciferase assay

Glucocorticoid receptor [5] = molecular target: T2, Glucocorticoid receptor; conditions: pc-3
Description: as §1

SMILES: CCc1cccc(NS(=O)(=O)c2cc3c4c(c2)CCC(=O)N4CCC3)c1
IC50 (Androgen receptor [1]): 0.394 µM

SMILES: CNC(=O)c1ccc(N2C(=S)N(c3cnc(C#N)c(C(F)(F)F)c3)C(=O)C23CCC3)cc1F [APALUTAMIDE]
CC50 (LNCaP): 9.72 µM
CC50 (LNCaP C4-2): 41.7 µM
CC50 (DU-145): > 50 µM
CC50 (PC-3): > 50 µM
CC50 at 72 h [2]: > 50 µM
CC50 (CWR22R): > 50 µM

SMILES: CC(O)c1cc(C(=O)N[C@@H](C)Cn2ccc(-c3ccc(C#N)c(Cl)c3)n2)n[nH]1 (stereo not given in full) [DAROLUTAMIDE]
CC50 (LNCaP): 7.04 µM
CC50 (LNCaP C4-2): 18.8 µM
CC50 (DU-145): > 50 µM
CC50 (PC-3): > 50 µM
CC50 at 72 h [2]: > 50 µM
CC50 (CWR22R): > 50 µM

SMILES: O=C(Nc1ccc(C(=O)NC23C[C@H]4C[C@H](C2)C[C@@H](C3)C4)s1)c1cccc(S(=O)(=O)N2CCCc3ccccc32)c1
IC50 (Androgen receptor [3]): 0.12 µM

SMILES: O=C(Nc1ccc(C(=O)NC2CC2)s1)c1cccc(S(=O)(=O)N2CCCc3ccccc32)c1
IC50 (Androgen receptor [3]): 0.2 µM

SMILES: CNC(=O)c1ccc(N2C(=S)N(c3ccc(C#N)c(C(F)(F)F)c3)C(=O)C2(C)C)cc1F [ENZALUTAMIDE]
IC50 (Glucocorticoid receptor [5]): Not Active

Further lines, results first:

IC50 (Androgen receptor [3]): > 5 µM
SMILES: Cc1ccc(NC(=O)c2ccc(NC(=O)c3ccc(S(=O)(=O)N4CCCc5ccccc54)cc3)s2)cc1

IC50 (Androgen receptor [3]): 0.12 µM
SMILES: CCOC(=O)c1ccc(NC(=O)c2ccc(S(=O)(=O)Nc3ccc(C)cc3)cc2)s1

IC50 (Androgen receptor [3]): 1.7 µM
SMILES: CCOC(=O)c1ccc(NC(=O)c2cccc(S(=O)(=O)N3CCCc4ccccc43)c2)s1

IC50 (Glucocorticoid receptor [4]): > 5 µM
SMILES: CCOC(=O)c1ccc(NC(=O)c2cccc(S(=O)(=O)Nc3ccc4ccccc4c3)c2)s1
